Experimental findings from patent publication US20110313156A1 (BOEHRINGER INGELHEIM INTERNATIONAL GMBH, priority 2008, published 2011) are described below.

The target in the experiment is T1, His6-PDK1 (aa 52-556) (Homo sapiens, UniProt O15530).
T1 construct: 15 μL His6-PDK1 (aa 52-556) 3.33 ng/well); host or cells: baculovirus-infected insect cells
T1 sequence (O15530 52-556): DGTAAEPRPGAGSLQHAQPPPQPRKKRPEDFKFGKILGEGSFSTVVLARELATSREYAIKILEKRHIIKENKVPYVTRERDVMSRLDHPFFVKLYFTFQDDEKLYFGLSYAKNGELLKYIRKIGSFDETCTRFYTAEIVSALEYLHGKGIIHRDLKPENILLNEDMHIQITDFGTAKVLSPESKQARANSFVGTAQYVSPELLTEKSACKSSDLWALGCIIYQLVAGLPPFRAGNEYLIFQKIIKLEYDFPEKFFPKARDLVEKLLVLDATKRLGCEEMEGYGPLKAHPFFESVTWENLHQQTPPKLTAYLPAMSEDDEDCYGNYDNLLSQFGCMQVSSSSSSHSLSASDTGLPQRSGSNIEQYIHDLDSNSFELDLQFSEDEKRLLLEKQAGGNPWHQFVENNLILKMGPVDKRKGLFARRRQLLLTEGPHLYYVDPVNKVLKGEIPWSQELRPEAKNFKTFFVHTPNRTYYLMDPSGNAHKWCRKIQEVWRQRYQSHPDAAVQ
As to the kind of experiment: PDK1 kinase assay III (with Tween 20). The settings on record: compound at 10 μM; PDK1 kinase assay III (values without asterisk); read-out: % CTL (residual activity of the enzyme relative to DMSO control). Type of experiment: biochemical. How it is done:
Purified enzyme may be obtained for example from the University of Dundee, Scotland.
Another PDK1 assay was developed which by comparison with PDK1 assay 1 additionally contains Tween 20:
The final concentration of Tween 20 is 0.005%.
The reaction is started by adding the ATP solution and the mixture is incubated for 90 min at ambient temperature; at the start of the reaction the dishes are shaken gently. The reaction is stopped by the addition of 50 μL/well of 500 mM phosphoric acid (H3PO4) and incubated for about 20 min at ambient temperature. […] The measured data are evaluated using Graphpad Prism software.
The % CTL values indicate the residual activity of the enzyme after the addition of the inhibitory compound in the solvent DMSO in relation to the enzyme activity in the solvent DMSO without the addition of a compound (control). The majority of the values were determined using the PDK1 kinase assay III described hereinbefore. The values marked with an asterisk (* or**) were determined using the PDK1 kinase assay II described hereinbefore (one asterisk→incubation for 24 h; two asterisks→incubation for 5 min)

Molecules are shown by their SMILES.

For the compound `COc1cc(C(=O)NC2CCN(C)CC2)ccc1Nc1ncc2cc(C#CCNC(=O)c3c(C)n(C)n(Cc4ccc(F)c(F)c4)c3=O)ccc2n1`, the remaining activity at 10 µM was determined as 61.8%.
Regarding `CN(C)Cc1ccc(Nc2ncc3cc(C#CCNC(=O)c4ccnn(Cc5ccc(F)c(F)c5)c4=O)ccc3n2)cc1`, the remaining activity at 10 µM was 13.3%.
Next, `Cc1c(C(=O)NCC#Cc2cc(OCCN)c3nc(Nc4ccccc4)ncc3c2)c(=O)n(Cc2ccc(F)c(F)c2)n1C`: 9.8%; `NCCOc1cc(C#CCNC(=O)c2cncn(Cc3ccc(F)c(F)c3)c2=O)cc2cnc(Nc3ccccc3)nc12`: 13.7%; `Cc1c(C(=O)NC/C=C/c2cc(OCCN)c3nc(Nc4ccccc4)ncc3c2)c(=O)n(Cc2ccc(F)c(F)c2)n1C`: 19.5%.
Next, `Cc1c(C(=O)NC/C=C/c2cc(OCCN)c3nc(Nc4ccc(N5CCOCC5)cc4)ncc3c2)c(=O)n(Cc2ccc(F)c(F)c2)n1C`: 13%; `NCCOc1cc(C#CCNC(=O)c2cncn(Cc3ccc(F)c(F)c3)c2=O)cc2cnc(Nc3ccc(N4CCOCC4)cc3)nc12`: 18.3%.
For the compound `Cc1c(C(=O)NCC#Cc2cc(OCCN)c3nc(Nc4ccc(N5CCOCC5)cc4)ncc3c2)c(=O)n(Cc2ccc(F)c(F)c2)n1C`, the remaining activity at 10 µM was determined as 13.8%.
In the case of `NCCOc1cc(/C=C/CNC(=O)c2cncn(Cc3ccc(F)c(F)c3)c2=O)cc2cnc(Nc3ccc(N4CCOCC4)cc3)nc12`, the remaining activity at 10 µM came out at 10.1%.
Consider `O=C(NC/C=C/c1cc(OC2CCNCC2)c2nc(Nc3ccc(N4CCOCC4)cc3)ncc2c1)c1cncn(Cc2ccc(F)c(F)c2)c1=O`, for which the remaining activity at 10 µM was 12.3%.
On to `O=C(NCC#Cc1cc(OC2CCNCC2)c2nc(Nc3ccc(N4CCOCC4)cc3)ncc2c1)c1cncn(Cc2ccc(F)c(F)c2)c1=O`, for which the remaining activity at 10 µM is 9.4%.
With `Cc1c(C(=O)NCC#Cc2cc(OC3CCNCC3)c3nc(Nc4ccc(N5CCOCC5)cc4)ncc3c2)c(=O)n(Cc2ccc(F)c(F)c2)n1C`, the remaining activity at 10 µM was 12.3%.
Take `Cc1c(C(=O)NC/C=C/c2cc(OCCCN)c3nc(Nc4ccc(N5CCOCC5)cc4)ncc3c2)c(=O)n(Cc2ccc(F)c(F)c2)n1C`: the remaining activity at 10 µM came to 12.5%.
As for `Cc1c(C(=O)NC/C=C/c2cc(OC3CCNC3)c3nc(Nc4ccc(N5CCOCC5)cc4)ncc3c2)c(=O)n(Cc2ccc(F)c(F)c2)n1C` (stereo not shown), the remaining activity at 10 µM was determined as 10.3%.
Next, `CNC(=O)c1cccc(Nc2ncc3cc(C#CCNC(=O)c4c(C)n(C)n(Cc5ccc(F)c(F)c5)c4=O)ccc3n2)c1`: 19.3%; `CN1CCC(NC(=O)c2ccc(Nc3ncc4cc(/C=C/CNC(=O)c5cncn(Cc6ccc(F)c(F)c6)c5=O)ccc4n3)cc2F)CC1`: 19.7%.
Next, `CNC(=O)c1ccc(Nc2ncc3cc(/C=C/CNC(=O)c4cncn(Cc5ccc(F)c(F)c5)c4=O)ccc3n2)cc1Cl`: 14.1%.
Take `CNC(=O)c1ccc(Nc2ncc3cc(/C=C/CNC(=O)c4c(C)n(C)n(Cc5ccc(F)c(F)c5)c4=O)ccc3n2)cc1Cl`: the remaining activity at 10 µM is 18.6%.
Regarding `Cc1c(C(=O)NC/C=C/c2ccc3nc(Nc4ccc(C(=O)N(C)C5CCN(C)CC5)c(Cl)c4)ncc3c2)c(=O)n(Cc2ccc(F)c(F)c2)n1C`, the remaining activity at 10 µM came out at 15.8%.
Consider `CNc1ncc2cc(/C=C/CNC(=O)c3c(C)n(C)n(Cc4ccc(F)c(F)c4)c3=O)ccc2n1`, for which the remaining activity at 10 µM came out at 16.1%.
For `O=C(NC/C=C/c1ccc2nc(Nc3ccccn3)ncc2c1)c1cncn(Cc2ccc(F)c(F)c2)c1=O`, the remaining activity at 10 µM is 18.4%.
In the case of `Cc1c(C(=O)NC/C=C/c2ccc3nc(Nc4ccccn4)ncc3c2)c(=O)n(Cc2ccc(F)c(F)c2)n1C`, the remaining activity at 10 µM is 22.7%.
`O=C(NC/C=C/c1ccc2nc(Nc3ccncc3)ncc2c1)c1cncn(Cc2ccc(F)c(F)c2)c1=O`: the remaining activity at 10 µM was 12.1%.
As for `COC(=O)c1ccc(Nc2ncc3cc(/C=C/CNC(=O)c4cncn(Cc5ccc(F)c(F)c5)c4=O)ccc3n2)cc1OC`, the remaining activity at 10 µM stood at 38.2%.
As to `COC(=O)c1ccc(Nc2ncc3cc(/C=C/CNC(=O)c4c(C)n(C)n(Cc5ccc(F)c(F)c5)c4=O)ccc3n2)cc1OC`, the remaining activity at 10 µM was 13.6%.
Next, `Cc1c(C(=O)NC/C=C/c2ccc3nc(Nc4ccc(C(=O)O)cc4)ncc3c2)c(=O)n(Cc2ccc(F)c(F)c2)n1C`: 12.9%; `CN1CCC(N(C)c2ccc(Nc3ncc4cc(/C=C/CNC(=O)c5nc(Cl)cn(Cc6ccc(F)c(F)c6)c5=O)ccc4n3)cc2)CC1`: 12.6%.
Next, `O=C1Nc2cc(/C=C/CNC(=O)c3cncn(Cc4ccc(F)c(F)c4)c3=O)ccc2/C1=C/c1ccc[nH]1` [I-1, 1-(3,4-difluorobenzyl)-6-oxo-N-{(2E)-3-[(3Z)-2-oxo-3-(1H-pyrrol-2-ylmethylidene)-2,3-dihydro-1H-indol-6-yl]prop-2-en-1-yl}-1,6-dihydropyrimidine-5-carboxamide]: 18.1%; `O=C1Nc2cc(/C=C/CNC(=O)c3cncn(Cc4ccc(F)c(F)c4)c3=O)ccc2/C1=C/c1cnc[nH]1` [I-2, 1-(3,4-difluorobenzyl)-N-{(2E)-3-[(3Z)-3-(1H-imidazol-5-ylmethylidene)-2-oxo-2,3-dihydro-1H-indol-6-yl]prop-2-en-1-yl}-6-oxo-1,6-dihydropyrimidine-5-carboxamide]: 12.2%.
Turning to `Cc1nc[nH]c1/C=C1\C(=O)Nc2cc(/C=C/CNC(=O)c3cncn(Cc4ccc(F)c(F)c4)c3=O)ccc21` [I-4, 1-(3,4-difluorobenzyl)-N-[(2E)-3-{(3Z)-3-[(5-methyl-1H-imidazol-4-yl)methylidene]-2-oxo-2,3-dihydro-1H-indol-6-yl]prop-2-en-1-yl}-6-oxo-1,6-dihydropyrimidine-5-carboxamide], the remaining activity at 10 µM came out at 16.4%.
As to `O=C1Nc2cc(/C=C/CNC(=O)c3ccnn(Cc4ccc(F)c(F)c4)c3=O)ccc2/C1=C/c1cnc[nH]1` [I-6, 2-(3,4-difluorobenzyl)-N-{(2E)-3-[(3Z)-3-(1H-imidazol-5-ylmethylidene)-2-oxo-2,3-dihydro-1H-indol-6-yl]prop-2-en-1-yl}-3-oxo-2,3-dihydropyridazine-4-carboxamide], the remaining activity at 10 µM came to 17.5%.
For `O=C1Nc2cc(/C=C/CNC(=O)C3CCCN(Cc4ccc(F)c(F)c4)C3=O)ccc2/C1=C/c1cnc[nH]1` (stereo not shown) [I-9, 1-(3,4-difluorobenzyl)-N-{(2E)-3-[(3Z)-3-(1H-imidazol-5-ylmethylidene)-2-oxo-2,3-dihydro-1H-indol-6-yl]prop-2-en-1-yl}-2-oxopiperidine-3-carboxamide], the remaining activity at 10 µM is 25.7%.
As for `O=C1Nc2cc(/C=C/CNC(=O)C3CCCN(Cc4ccc(F)c(F)c4)C3=O)ccc2/C1=C/c1ccc[nH]1` (stereo not shown) [I-10, 1-(3,4-difluorobenzyl)-2-oxo-N-{(2E)-3-[(3Z)-2-oxo-3-(1H-pyrrol-2-ylmethylidene)-2,3-dihydro-1H-indol-6-yl]prop-2-en-1-yl}piperidine-3-carboxamide], the remaining activity at 10 µM came to 36.1%.
Turning to `O=C1Nc2cc(/C=C/CNC(=O)C3CCN(Cc4ccc(F)c(F)c4)C3=O)ccc2/C1=C/c1cnc[nH]1` (stereo not shown) [I-11, 1-(3,4-difluorobenzyl)-N-{(2E)-3-[(3Z)-3-(1H-imidazol-5-ylmethylidene)-2-oxo-2,3-dihydro-1H-indol-6-yl]prop-2-en-1-yl}-2-oxopyrrolidine-3-carboxamide], the remaining activity at 10 µM is 21.7%.
For the compound `Cc1c(C(=O)NC/C=C/c2ccc3c(c2)NC(=O)/C3=C\c2ccc[nH]2)c(=O)n(Cc2ccc(F)c(F)c2)n1C` [I-16, 2-(3,4-difluorobenzyl)-1,5-dimethyl-3-oxo-N-{(2E)-3-[(3Z)-2-oxo-3-(1H-pyrrol-2-ylmethylidene)-2,3-dihydro-1H-indol-6-yl]prop-2-en-1-yl}-2,3-dihydro-1H-pyrazole-4-carboxamide], the remaining activity at 10 µM worked out at 15.4%.
Consider `Cc1c(C(=O)NC/C=C/c2ccc3c(c2)NC(=O)/C3=C\c2cnc[nH]2)c(=O)n(Cc2ccc(F)c(F)c2)n1C` [I-17, 2-(3,4-difluorobenzyl)-N-{(2E)-3-[(3Z)-3-(1H-imidazol-5-ylmethylidene)-2-oxo-2,3-dihydro-1H-indol-6-yl]prop-2-en-1-yl}-1,5-dimethyl-3-oxo-2,3-dihydro-1H-pyrazole-4-carboxamide], for which the remaining activity at 10 µM is 14.3%.
Regarding `O=C1Nc2cc(/C=C/CNC(=O)c3cccc(Nc4ccc(F)c(F)c4)n3)ccc2/C1=C/c1ccc[nH]1` [I-19, 6-[(3,4-difluorophenyl)amino]-N-{(2E)-3-[(3Z)-2-oxo-3-(1H-pyrrol-2-ylmethylidene)-2,3-dihydro-1H-indol-6-yl]prop-2-en-1-yl}pyridine-2-carboxamide], the remaining activity at 10 µM was found to be 36.9%.
